{"source": "paper PMC11036078", "about": "“PD‐1 inhibition with retifanlimab and/or arginase inhibition with INCB001158 in Japanese patients with solid tumors: A phase I study” (Cancer Medicine, 2024)", "assay": "Safety and tolerability (TEAEs, DLTs, irAEs; NCI CTCAE v5.0), phase Ib POD1UM-104", "details": "in vivo", "method": "This was a phase Ib, open‐label, multicenter study (POD1UM‐104 [NCT03910530]). The study was conducted in 2 parts. In Part 1, patients received single‐agent retifanlimab or escalating doses of single‐agent INCB001158 to confirm the RP2D of each agent. Single‐agent dosing was performed to comply with local regulations. In Part 2, patients received the combination of retifanlimab and INCB001158 at their respective RP2D determined in Part 1, to further explore safety and preliminary evidence of clinical activity. Treatment cycles in Part 1 and Part 2 were 28 days, and patients could receive treatment for up to 2 years, or until disease progression, unacceptable toxicity, death, or patient withdrawal.\nIn Part 1, 6 patients received retifanlimab 500 mg every 4 weeks (Q4W), given as an i.v. infusion over 60 min; this dose was based on the RP2D determined from global studies. The starting dose of INCB001158 was 75 mg taken orally twice daily (BID). Dose escalation of INCB001158 followed a standard 3 + 3 design; if 75 mg BID was deemed to be tolerable in at least 3 patients, a 100‐mg BID dose level cohort comprising at least 3 patients would be opened.\nDLTs were assessed by the investigator according to the National Cancer Institute (NCI) Common Terminology Criteria for Adverse Events (CTCAE) v5.0 criteria (Table S1).\nThe primary endpoints of the study were safety, tolerability, DLTs, and RP2D of single‐agent retifanlimab, INCB001158, and the combination. Adverse events (AEs) were graded by NCI CTCAE v5.0, and immune‐related adverse events (irAEs) were monitored as AEs of special interest. Physical examinations, monitoring of vital signs, electrocardiograms, and laboratory assessments were conducted throughout the study.\nSafety and efficacy analyses were conducted in the full analysis set, which comprised all enrolled patients who received at least 1 dose of the study drug.\nSafety data were summarized using descriptive statistics. PK parameters were summarized by study part, treatment regimen, cohort, dose levels, and/or visit. ORR and DCR were reported with their exact 95% confidence intervals (CIs); DOR was based on the Kaplan–Meier estimate of the distribution function, and the estimated median along with 95% CI was reported. Statistical analyses were performed using SAS® software v9.4 or later (SAS Institute Inc., Cary, NC, USA)."}
{"smiles": "C[C@H](N)C(=O)N1C[C@H](CCCB(O)O)[C@](N)(C(=O)O)C1", "note": "[INCB001158]", "values": [{"measurement": "Serious TEAEs (terms)", "setting": "human", "value": "grade 2 inguinal hernia (n = 1)"}, {"measurement": "TEAE: ALT increased", "setting": "human", "value": "0 n (%)"}, {"measurement": "TEAE: AST increased", "setting": "human", "value": "0 n (%)"}, {"measurement": "TEAE: Amylase increased", "setting": "human", "value": "0 n (%)"}, {"measurement": "TEAE: Anemia", "setting": "human", "value": "1 (16.7) n (%)"}, {"measurement": "TEAE: Blood creatinine increased", "setting": "human", "value": "0 n (%)"}, {"measurement": "TEAE: Diarrhea", "setting": "human", "value": "1 (16.7) n (%)"}, {"measurement": "TEAE: Nausea", "setting": "human", "value": "0 n (%)"}, {"measurement": "TEAE: Pruritus", "setting": "human", "value": "0 n (%)"}, {"measurement": "TEAE: Pyrexia", "setting": "human", "value": "0 n (%)"}, {"measurement": "TEAE: Rash", "setting": "human", "value": "0 n (%)"}, {"measurement": "TRAEs reported (terms)", "setting": "human", "value": "diarrhea (n = 1) and anemia and hyperbilirubinemia (n = 1)"}, {"measurement": "Treatment discontinuation because of a TEAE", "setting": "human", "value": "0 n (%)"}, {"measurement": "Grade 3 AEs reported but not occurring during the treatment window", "value": "anemia"}]}
